Patent US10925890B2, “Use of dextran sulfate” (TX MEDIC AB, priority 2014, dated 2021)

How the values were obtained:
[1] = system: Rat Hind-Limb Ischemia Model; test: Angiography analysis, rat hind-limb ischemia; format: in vivo; settings: 28 days after induction of hind-limb ischemia; p<0.01 and p<0.001
Protocol: The number of intersections between contrast-filled vessels was determined by image analysis 28 days after induction of hind-limb ischemia.

tMCAO rat-stroke model = test: Neurological test score (Neuroscore, mNRS), tMCAO rat; format: in vivo; settings: groups 2M (30 mg/kg 3 times per week) and 3M (daily); day 7 up to day 28
Protocol: Transient middle cerebral artery occlusion was performed according to the method previously described in Stroke 29, 2162-2170 (1998). The right common carotid artery (CCA) was exposed through a midline neck incision and carefully dissected free from surrounding nerves and fascia—from its bifurcation to the base of the skull. The occipital artery branches of the external carotid artery (ECA) were then isolated, and these branches were dissected and coagulated. The ECA was dissected further distally and coagulated along with the terminal lingual and maxillary artery branches, which was then divided. The internal carotid artery (ICA) was isolated and carefully separated from the adjacent vagus nerve, and the pterygopalatine artery was ligated close to its origin with a 5-0 nylon suture (SMI, Belgium). Next a 4-0 silk suture was tied loosely around the mobilized ECA stump, and a 4 cm length of 4-0 monofilament nylon suture (the tip of the suture was blunted by using a flame, and the suture was coated with polylysine, prior to insertion) was inserted through the proximal ECA into the ICA and thence into the circle of Willis, effectively occluding the MCA. The surgical wound was closed and the animals were returned to their cages to recover from anesthesia. […]

[2] = Body weight, tMCAO rat-stroke study; format: in vivo; settings: 30 mg/kg 3 times a week or 15 mg/kg daily s.c., 28 days
Text: In total 46 male SD rats having an average body weight of 342 g at study initiation (Day 0) were obtained from Harlan Laboratories, Israel. The minimal and maximal weight recorded in each group was within a range of ±20% of the group mean weight. Animals were handled according to guidelines of the National Institute of Health (NIH) and the Association for Assessment and Accreditation of Laboratory Animal Care (AAALAC). Animals were housed in polyethylene cages (5/cage) measuring 35×30×15 cm, with stainless steel top grill facilitating pelleted food and drinking water in plastic bottle; bedding: steam sterilized clean paddy husk (Harlan, Sani-chip cat #:2018SC+F) was used and bedding material was changed along with the cage at least twice a week. Animals were fed ad libitum a commercial rodent diet (Teklad Certified Global 18% Protein Diet cat #: 106S8216). Animals had free access to autoclaved and acidified drinking water (pH between 2.5 and 3.5) obtained from the municipality supply. Animals were housed under standard laboratory conditions, air-conditioned and filtered (HEPA F6/6) with adequate fresh air supply (Minimum 15 air changes/hour). Animals were kept in a climate-controlled environment. Temperatures range was 20-24° C. and RH range was 30-70% with 12 hours light and 12 hours dark cycle. […]

[3] = Mortality and clinical signs, tMCAO rat study; format: in vivo; settings: for Rats that died within 10 hours after dosing: vehicle group 1M: 6
Protocol: Started two hours after occlusion (immediately after reperfusion), animals in groups 2M and 3M (dextran sulfate at doses of 30 mg/kg three times a week or 15 mg/kg daily) and animals in group 1M (vehicle control) were injected subcutaneously, see Table 10.
Eighteen rats died during the study. One rat died just after reperfusion before dosing, and seventeen rats within 10 hours after dosing (6 in group 1M, 6 in group 2M and 5 in group 3M).

[4] = system: Rat Hind-Limb Ischemia Model; test: Immunohistochemistry, SMA and Factor 8 capillaries density, rat hind-limb ischemia; format: in vivo; settings: groups 2M-5M vs control 1M; Day 28
Protocol: Four sections of muscle samples were taken from the same areas of six animals from groups 1M, 2M, 3M, 4M, 5M and stained for blood vessels using antibodies against SMA and Factor 8. The area of blood vessels was evaluated by using image analysis. Density was expressed as the mean number of capillaries per field of view. Total vessels represented all blood vessels in the measured area. The number of SMA and factor 8 positive capillaries in right ischemic limb was larger in all dextran sulfate treated groups 2M-5M compared to the control group 1M on Day 28 of the study, see FIG. 23. SMA and factor 8 positive staining are considered as an indication for small capillaries formation in rats, and thus the obtained results supported blood flow improvement observed in the animal groups treated with dextran sulfate. Statistical analysis performed using two-way ANOVA followed by Bonferroni multiple comparisons, */** indicate p<0.0510.01.

[5] = system: Critical Hind-Limb Ischemia Mouse Model; test: In vivo assessment of limb function, mouse hind-limb ischemia
Protocol: Semi-quantitative assessment of impaired use of the ischemic limb was performed once a week post-surgery using the following scale, see Table 7.
Limb function was graded as “Not applicable” in case of partial or full limb amputation. In such case blood flow measurements was not included in the statistical analysis.

[6] = Adverse effects, rat hind-limb ischemia study; format: in vivo; settings: 30 and 3 mg/kg s.c., 3 times a week or single dose
Protocol: Animals in group 4M and 5M were injected s.c. once on Day 8, see Table 12.
In the present study blood flow improvement in the rat hind-limb ischemia model was examined in order to evaluate the efficacy of dextran sulfate in two different doses and treatment regimes. […] Both doses and administration regimens were efficacious. No spontaneous amputations or toe necrosis occurred in any of the treated or control animal groups. […] Collectively the data of this study confirmed the therapeutic efficacy of dextran sulfate for the treatment of occlusive peripheral arterial disease in the rat hind-limb ischemia model.

[7] = day 7 (before treatment), group 2M, 10 mg/kg 3 times/week
[8] = day 7 (before treatment), group 3M, 30 mg/kg 3 times/week
[9] = day 7 (before treatment), group 4M, 30 mg/kg 1 time/week
[10] = day 35, group 2M, 10 mg/kg s.c. 3 times/week
[11] = day 35, group 3M, 30 mg/kg s.c. 3 times/week
[12] = day 35, group 4M, 30 mg/kg s.c. 1 time/week

Substance: Dextran sulfate
- Angiography: collaterals in affected limb vs vehicle control [1]: significantly large numbers of collaterals
- Neuroscore (0-18) compared to vehicle treated control (tMCAO rat-stroke model): Statistically significant differences
- Body weight, differences among treatment groups [2]: no statistically significant differences
- Adverse clinical signs ([3]; all animal groups): No adverse clinical signs unrelated to the model
- Rats that died within 10 hours after dosing ([3]; group 2M, 30 mg/kg s.c. 3 times a week): 6 rats
- Rats that died within 10 hours after dosing ([3]; group 3M, 15 mg/kg s.c. daily): 5 rats
- Number of SMA and factor 8 positive capillaries in right ischemic limb [4]: larger
- Limb function score (0-3, 3 worst) ([5]; 10 or 30 mg/kg, 1x/w or 3x/w from day 8, from day 21 and onward, two-way ANOVA): significant improvement
- Incidence of mice with limb function score 0 [5, 7]: 0.0%
- Incidence of mice with limb function score 1 [5, 7]: 0.0%
- Incidence of mice with limb function score 2 [5, 7]: 21.4%
- Incidence of mice with limb function score 3 [5, 7]: 79.6%
- Incidence of mice with limb function score 0 [5, 8]: 0.0%
- Incidence of mice with limb function score 1 [5, 8]: 0.0%
- Incidence of mice with limb function score 2 [5, 8]: 21.4%
- Incidence of mice with limb function score 3 [5, 8]: 79.6%
- Incidence of mice with limb function score 0 [5, 9]: 0.0%
- Incidence of mice with limb function score 1 [5, 9]: 0.0%
- Incidence of mice with limb function score 2 [5, 9]: 7.1%
- Incidence of mice with limb function score 3 [5, 9]: 92.9%
- Incidence of mice with limb function score 0 [5, 10]: 50.0%
- Incidence of mice with limb function score 1 [5, 10]: 42.9%
- Incidence of mice with limb function score 2 [5, 10]: 7.1%
- Incidence of mice with limb function score 3 [5, 10]: 0.0%
- Incidence of mice with limb function score 0 [5, 11]: 72.4%
- Incidence of mice with limb function score 1 [5, 11]: 21.5%
- Incidence of mice with limb function score 2 [5, 11]: 7.1%
- Incidence of mice with limb function score 3 [5, 11]: 0.0%
- Incidence of mice with limb function score 0 [5, 12]: 69.2%
- Incidence of mice with limb function score 1 [5, 12]: 30.8%
- Incidence of mice with limb function score 2 [5, 12]: 0.0%
- Incidence of mice with limb function score 3 [5, 12]: 0.0%
- Adverse effects in the treated animals [6]: did not cause any adverse effects
